Results from patent US20090143471A1, “Process for the Atomization of Ioxilan” (GUERBET, priority 2006, published 2009).

Assay: immediate solubility in water
Assay type: physicochemical
Conditions: ambient or moderate temperature (typically from 20 to 40° C.)
Description: Another disadvantage of the prior process by crystallization was that, in order to obtain an appropriate concentration of active principle in the contrast agent, the dissolution of the crystalline compound B1 (solid crystalline ioxilan, denoted B1; compound B of FIG. 1 is compound B1) required heating at high temperature (80° C.). This is because the immediate solubility of B1 in water at ambient or moderate temperature (typically from 20 to 40° C.) was of the order of 50 mg of iodine/ml.
The atomized compound B2 is soluble at ambient or moderate temperature. It is possible, starting from the compound B2, to obtain an appropriate pharmaceutical solution without needing to heat at high temperature. The immediate solubility of B2 in water at ambient or moderate temperature, of the order of at least 500 mg of iodine/ml and typically of approximately 500 mg of iodine/ml, makes it possible to obtain an injected contrast agent having a concentration of 350 to 450 mg of iodine/ml, for example 350, 380 or 400 mg of iodine/ml.

immediate solubility in water: ~50 mg of iodine/ml
Compound: CC(=O)N(CC(O)CO)c1c(I)c(C(=O)NCCO)c(I)c(C(=O)NCC(O)CO)c1I (stereo not shown) [B1, 5-[N-(2,3-dihydroxypropyl)acetamido]-2,4,6-triiodo-N-(2,3-dihydroxypropyl)-N′-(2-hydroxyethyl)isophthalamide]
